From PMC3205048, “Differential Modulation of Beta-Adrenergic Receptor Signaling by Trace Amine-Associated Receptor 1 Agonists” (PLoS ONE, 2011)
Like-named read-outs stand apart in the source and are kept apart here.

Columns and labels:
Format in all cases: cell-based
hTAAR1 = biological target: T1, hTAAR1 (Homo sapiens, UniProt Q96RJ0); assay: cAMP accumulation (AlphaScreen) in HEK293 cells transiently transfected with hTAAR1
T1 construct: Full length human TAAR1 (hTAAR1, NM_138327.1) was subcloned; first 20 amino acids of bovine rhodopsin (N); expressed in transfected cells; host or cells: HEK293, transient transfection, vector pcDps
T1 sequence (Q96RJ0 1-339): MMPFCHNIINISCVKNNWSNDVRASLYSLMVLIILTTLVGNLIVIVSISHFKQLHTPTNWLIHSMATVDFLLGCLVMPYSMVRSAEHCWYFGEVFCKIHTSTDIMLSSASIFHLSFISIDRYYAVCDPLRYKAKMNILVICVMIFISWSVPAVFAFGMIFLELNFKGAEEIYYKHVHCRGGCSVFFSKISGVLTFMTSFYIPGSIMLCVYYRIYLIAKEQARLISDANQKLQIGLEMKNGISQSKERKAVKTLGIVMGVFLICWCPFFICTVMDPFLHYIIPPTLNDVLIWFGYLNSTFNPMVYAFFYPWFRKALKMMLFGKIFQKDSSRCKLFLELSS
Protocol: Figure 2 Functional characterization of hTAAR1 interacting with different trace amines. HEK293 cells transiently transfected with hTAAR1 and were incubated for 45 minutes with […] of PEA, OA and TYR. Basal signaling activity as well as activation of the Gs protein/adenylyl cyclase pathway was determined by AlphaScreen technology. Data represent mean ± SEM of cAMP accumulation after stimulation from 4–5 independent experiments performed in triplicates. […]. Data were analyzed using a paired one-tailed t-test.
Full length human TAAR1 (hTAAR1, NM_138327.1) was subcloned into the eukaryotic expression vector pcDps, N-terminally tagged with an hemagglutinin (5′ […] 3′) epitope via KpnI and SpeI restriction sites. For better cell surface expression hTAAR1 was additionally N-terminally fused with the first 20 amino acids of the bovine Rhodopsin [18], [33]. The human β1-adrenergic receptor (hADRB1, NM_000684.2)-pcDps construct cloned via KpnI/SpeI containing N-terminal (HA)-tag and C-terminal Flag-tag (5′ […] 3′).
Human embryonic kidney cells (HEK293) were cultured in Minimum Essential Medium (MEM) Earle's (Biochrom AG) supplemented with 10% FBS (PAA Laboratories GmbH), 100 U/ml penicillin, and 100 µg/ml streptomycin (Biochrom AG) and 2 mM L-glutamine (Invitrogen) at 37°C with 5% CO2. 48 well plates were coated with Poly-L-Lysine (Biochrom) and HEK293 cells were seeded with 37,500 cells per well. Transient transfection in triplicates with 84 ng DNA/well using metafectene according to manufactures instructions (Biontex, Munich, Germany) was performed 28 hours later. 40 hours after transfection cells were pre-incubated for 5 minutes with stimulation buffer containing of MEM Earle's media and 1 mM 3-isobutyl-1-methylxanthine (IBMX, Sigma). This stimulation buffer was used for all further steps. […]. Ligands were all purchased from Sigma, Munich. Controls were incubated with tyramine, β-phenylethylamine, octopamine or isoprenaline for 45 minutes. All reactions were performed at 37°C with 5% CO2 saturated air and stopped by aspirating medium. Cells were lysed at 4°C for 2 h on a shaking platform with cell lysis buffer containing […] HEPES, 0.1% BSA, 0.3% Tween20 and 1 mM IBMX.
(§1) The competitive cyclic adenosine-monophosphate (cAMP) assay via Alphascreen (Perkin Elmer Life Science, Inc., Boston, MA) was carried out according to the manufacturers' protocol. Briefly, 5 µl of each sample were transferred to a 384 well plate. Acceptor beads were diluted in 1X HBSS with […] HEPES, 0.1% BSA, pH 7.4 and incubated for 30 minutes at room temperature. Then donor beads and 50 µM biotinylated cAMP diluted in the same way were added and incubated for an hour at room temperature. Measurement of the plate was performed using Berthold Microplate Reader (Berthold Technologies GmbH & Co. KG). Results are expressed in fold over mock (unstimulated empty vector). Dose response curves and bar graphs with mean ± SEM as well as statistical analysis (paired one-tailed t-test) were generated using GraphPad Prism Version 4.03.
Supplementary file pone.0027073.s001.tif: Figure S1 Dose response curves of hTAAR1 agonists. […]. HEK293 transiently expressing hTAAR1 were stimulated with each trace amine in concentrations ranging 0.1 mM to 10 nM. Shown are dose response curves fold over basal means ± SEM from n≥4 independent experiments of measured cAMP in triplicates as described in Material and Methods. […]. Data were analyzed using paired one-tailed t-test tested against basal value of hTAAR1. (TIF) Click here for additional data file.

hADRB2 = biological target: T2, hADRB2 (Homo sapiens, UniProt P07550); assay: cAMP accumulation (AlphaScreen) in HEK293 cells transiently transfected with hADRB2, ligand alone or co-stimulation with ISOP; details: for agonistic effect of the ligand alone: ligand alone 6.7 nM to 6700 nM, 45 min; for effect on ISOP stimulation: pre-incubation 6.7 nM to 6700 nM 15 min, then ISOP 1 nM to 10000 nM 30 min
T2 construct: HA tag (N); expressed in transfected cells; host or cells: HEK293 (ATCC-LGC), transient transfection, vector pcDps
Protocol: (§2) We functionally tested the effects of particular trace amines at the human ADRB1 and ADRB2 (figure 3). […] Controls were stimulated with each trace amine and ISOP alone, respectively.
(§3) Figure 3 Characterization of hADRB1 and hADRB2 after trace amine challenge. HEK293 cells were transiently transfected with hADRB1 and hADRB2, respectively. […] As controls hADRB1 and hADRB2 were incubated with each substance alone with the same concentration for 45 minutes. Three to four independent experiments measured in duplex or tripletts mean ± SEM are depicted here. […] Maximal values were statistically analyzed using paired one-tail t-test compared to ISOP maximal stimulation. A-B) hADRB1 and hADRB2 were stimulated with ISOP and TYR alone and with both substances simultaneously.
Human β2-adrenergic receptor (ADRB2, NM_000024.5) was subcloned via EcoRI and SpeI with an N-terminal (HA)-tag as well.
Human embryonic kidney cells (HEK293) were cultured in Minimum Essential Medium (MEM) Earle's (Biochrom AG) supplemented with 10% FBS (PAA Laboratories GmbH), 100 U/ml penicillin, and 100 µg/ml streptomycin (Biochrom AG) and 2 mM L-glutamine (Invitrogen) at 37°C with 5% CO2. 48 well plates were coated with Poly-L-Lysine (Biochrom) and HEK293 cells were seeded with 37,500 cells per well. Transient transfection in triplicates with 84 ng DNA/well using metafectene according to manufactures instructions (Biontex, Munich, Germany) was performed 28 hours later. 40 hours after transfection cells were pre-incubated for 5 minutes with stimulation buffer containing of MEM Earle's media and 1 mM 3-isobutyl-1-methylxanthine (IBMX, Sigma). This stimulation buffer was used for all further steps. […] Ligands were all purchased from Sigma, Munich. Controls were incubated with tyramine, β-phenylethylamine, octopamine or isoprenaline for 45 minutes. All reactions were performed at 37°C with 5% CO2 saturated air and stopped by aspirating medium. Cells were lysed at 4°C for 2 h on a shaking platform with cell lysis buffer containing […] HEPES, 0.1% BSA, 0.3% Tween20 and 1 mM IBMX.
as §1, with “vector).” for “vector). Dose response curves and bar graphs with mean ± SEM as well as statistical analysis (paired one-tailed t-test) were generated using GraphPad Prism Version 4.03.”

hADRB1 = biological target: T3, hADRB1 (Homo sapiens, UniProt P08588)
T3 construct: HA tag (N); expressed in transfected cells; host or cells: HEK293 (ATCC-LGC), transient transfection, vector pcDps
Protocol: as §2, §3
Human embryonic kidney cells (HEK293) were cultured in Minimum Essential Medium (MEM) Earle's (Biochrom AG) supplemented with 10% FBS (PAA Laboratories GmbH), 100 U/ml penicillin, and 100 µg/ml streptomycin (Biochrom AG) and 2 mM L-glutamine (Invitrogen) at 37°C with 5% CO2. […]
The competitive cyclic adenosine-monophosphate (cAMP) assay via Alphascreen (Perkin Elmer Life Science, Inc., Boston, MA) was carried out according to the manufacturers' protocol. […] Measurement of the plate was performed using Berthold Microplate Reader (Berthold Technologies GmbH & Co. KG). […]

[1] = ligand alone, 45 min, HEK293, cAMP, mean ± SEM
[2] = ligand alone, HEK293, cAMP accumulation, mean ± SEM, n≥3, read-out: EC50

T2 sequence (P07550 whole entry): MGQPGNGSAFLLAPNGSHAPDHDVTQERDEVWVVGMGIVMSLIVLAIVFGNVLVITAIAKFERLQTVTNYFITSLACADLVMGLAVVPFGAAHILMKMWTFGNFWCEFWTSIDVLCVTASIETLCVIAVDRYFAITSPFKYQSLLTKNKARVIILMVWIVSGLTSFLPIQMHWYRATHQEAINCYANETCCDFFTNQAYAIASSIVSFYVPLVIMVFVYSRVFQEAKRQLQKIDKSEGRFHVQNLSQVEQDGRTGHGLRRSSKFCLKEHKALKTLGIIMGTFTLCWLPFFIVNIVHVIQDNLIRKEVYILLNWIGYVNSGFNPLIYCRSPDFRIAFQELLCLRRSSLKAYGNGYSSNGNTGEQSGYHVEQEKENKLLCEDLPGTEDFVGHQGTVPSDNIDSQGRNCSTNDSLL
T3 sequence (P08588 whole entry): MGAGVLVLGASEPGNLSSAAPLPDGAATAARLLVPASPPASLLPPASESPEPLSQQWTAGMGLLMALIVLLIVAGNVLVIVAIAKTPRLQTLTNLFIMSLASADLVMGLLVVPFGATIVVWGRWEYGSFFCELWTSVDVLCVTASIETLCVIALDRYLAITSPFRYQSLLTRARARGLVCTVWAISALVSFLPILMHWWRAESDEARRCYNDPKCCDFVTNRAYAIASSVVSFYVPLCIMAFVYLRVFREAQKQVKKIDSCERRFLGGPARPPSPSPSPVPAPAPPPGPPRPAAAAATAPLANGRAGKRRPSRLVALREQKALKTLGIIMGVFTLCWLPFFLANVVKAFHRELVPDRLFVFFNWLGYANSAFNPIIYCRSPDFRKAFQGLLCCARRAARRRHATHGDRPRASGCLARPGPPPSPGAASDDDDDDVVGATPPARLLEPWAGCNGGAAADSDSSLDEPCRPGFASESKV

SMILES | activation of hTAAR1 (adenylyl cyclase stimulation, cAMP formation) (hTAAR1; HEK293, 45 min) | Emax (hTAAR1; [1]) [nM] | EC50 (hTAAR1; [2]) [nM] | agonistic effect of the ligand alone (hADRB2) | effect on ISOP stimulation (hADRB2) | effect on ISOP stimulation (hADRB1) | agonistic effect of the ligand alone (hADRB1; ligand alone 6.7 nM to 6700 nM, 45 min) | EC50 (hTAAR1) [nM] | Emax (hTAAR1) [nM] | activation of hTAAR1 (adenylyl cyclase stimulation, cAMP formation) (hTAAR1)
NCC(O)c1ccc(O)cc1 (centres unmarked) [OA, octopamine] | activate hTAAR1 | 172 ± 42 | 4170 ± 1470 | no agonistic effect | orthosteric antagonist | – | – | – | – | –
NCCc1ccccc1 [PEA, β-phenylethylamine] | activate hTAAR1 | 403 ± 54 | 260 ± 16 | no agonistic effects | non-competitively antagonized | non-competitively antagonized | no agonistic effects | – | – | –
NCCc1ccc(O)cc1 [TYR, tyramine] | – | – | – | no agonistic effect | allosteric antagonist | – | – | 1540 ± 251 | 219 ± 67 | activate hTAAR1
